Data: US12501899B2, “Mite infestation treatment” (priority 2019, dated 2025)
Read-outs that look alike come from different tables or passages of the source.

Key:
bees (Apis mellifera) = conditions: 1 μg/μL, 1 μL on bee thorax; time not stated (monitored up to 24 hours)
Experimental: The bees were then dispatched in the boxes (10 per box).
The bees were then put to sleep for a few minutes using CO2 (flow of 3 liters for 20 seconds) in order to deposit 1 μL of compound to be tested on their thorax using a pipette. It should be noted that the bees which received romifidine hydrochloride at a concentration of 10 μg/μL received 2 μL of product. The bees were unconscious for the time the compound to be tested was deposited, that is to say around three minutes, then they woke up.
After thoracic deposition of the compound to be tested, the 10 bees from the same box were transferred to a box containing the 10 Varroa mites (cf. “Preparation of Varroa mites” above). Liquid sugar was left in each of the boxes to feed the bees during the observations. The series of boxes was then placed in an oven at […] with a humidity of 50% in order to approximate hive conditions as closely as possible.
The mortality of Varroa mites and bees was then monitored 5 minutes, 2 hours, 4 hours and 24 hours after application of the compound to be tested to the bees. Dead Varroa mites correspond to Varroa mites detached from the bees. Dead bees correspond to bees which no longer move and which are often placed on their thorax.
The following compositions were applied to the thorax of the bees: • Solvent, • Amitraz at 1 μg/μL in acetone, • Clonidine hydrochloride at 100 μg/μL, 10 μg/μL, 1 μg/μL and 0.1 μg/μL in methanol, • Detomidine hydrochloride monohydrate at 1 μg/μL in methanol, • Dexmedetomidine hydrochloride at 100 μg/μL, 10 μg/μL, 1 μg/μL and 0.1 μg/μL in methanol, • Romifidine hydrochloride at 10 μg/μL and at 5 μg/μL in methanol, • Tizanidine hydrochloride at 1 μg/μL in methanol, • Medetomidine hydrochloride at 0.1 μg/μL in ethanol, • Levomedetomidine hydrochloride at 100 μg/μL, 10 μg/μL, 1 μg/μL and 0.1 μg/μL in methanol, • Octopamine at 1 μg/μL in ethanol. Results

Ixodes ricinus = assay: Oral acaricidal test on ticks in membrane feeding wells with treated blood; type: in vivo; conditions: for average percentage of affected adult ticks (convulsion, morbidity or death of ticks): 100 ppm oral; for mortality at 100 ppm: Ixodes ricinus, po
Experimental: A laboratory study was conducted to determine the oral acaricidal properties of three compounds according to the invention (SN0305, SN0306 and SN0307) against Ixodes ricinus. Each compound was tested at 1, 10 and 100 ppm, and compared to a negative control corresponding to solvent alone (0.1% DMSO). Amitraz at 100 ppm was used as a positive control.
The Ixodes ricinus ticks (nymphs and adults) were placed for 24 hours on a membrane in feeding wells containing blood mixed with the tested compounds. Tick mortality (number of dead, moribund, or unaffected ticks in each well), attachment to the membrane (number of ticks attached/detached in each well), and the behavior (presence or absence of twitches) were examined 1, 3, 6, 12, 24, 48, 72, and 96 hours after the onset of tick exposure to the compounds.
Ticks (Ixodes ricinus) were collected. Collected adult females were kept separate from the nymphs and both were placed in sterile tubes in a humidity chamber to provide ˜80% humidity and 17° C. Only healthy ticks (females/nymphs) were chosen for the experiment.
Batches of 12 adults or nymphs were inserted into the feeding wells. After about 24 hours, their attachment was examined with a brush.
The efficiency of three compounds (SN0305, SN0306 and SN0307), each tested at three concentrations (1, 10, 100 ppm), was compared to the solvent control (0.1% DMSO, Sigma-Aldrich D-5879; Lot 101K0028) and to the positive control (Amitraze at 100 ppm).
Silicone-coated membranes with a thickness comprised between 110 and 140 μm were used for the construction of the feeding units.
Feeding units (sterilized acrylic glass tubes) were placed in feeding wells made of sterilized six-well plates.
3.1 ml of sterile 10^−3 M ATP-enriched blood was applied to each feeding well. Feeding wells were then inserted into a heated water bath (FIG. 12) and maintained at 37° C.±2° C.
Stock solutions of 100,000 ppm were prepared and tenth dilutions were carried out in 0.1% DMSO to reach the desired concentrations. After tick attachment (24 hours after placing the ticks in the feeding wells), 3.1 μl of the solutions were added to each feeding well containing 3.1 ml of blood. Blood was changed after 12 hours with fresh supplementation of the compounds to be tested. The ticks were exposed to the product for a total of 24 hours, after which the blood was again changed to fresh, untreated blood.
Tick mortality (number of dead, moribund or unaffected ticks in each well), attachment (number of attached/detached ticks in each well) and behavior (presence, absence and intensity of convulsions) were examined 1, 3, 6, 12, 24, 48, 72, and 96 hours after the start of tick exposure to the compound.

Cc1ccc(/N=C/N(C)/C=N/c2ccc(C)cc2C)c(C)c1 [Amitraz]
bees killed / bee mortality (bees (Apis mellifera)): 0% | average percentage of affected adult ticks (convulsion, morbidity or death of ticks) (Ixodes ricinus; adult ticks, 1 h): 66.8% | average percentage of affected adult ticks (convulsion, morbidity or death of ticks) (Ixodes ricinus; adult ticks, 3 h): 56.2% | average percentage of affected adult ticks (convulsion, morbidity or death of ticks) (Ixodes ricinus; adult ticks, 6 h): 53.7% | average percentage of affected adult ticks (convulsion, morbidity or death of ticks) (Ixodes ricinus; adult ticks, 12 h): 56.2% | average percentage of affected adult ticks (convulsion, morbidity or death of ticks) (Ixodes ricinus; adult ticks, 24 h): 66.5% | average percentage of affected adult ticks (convulsion, morbidity or death of ticks) (Ixodes ricinus; adult ticks, 48 h): 83.1% | average percentage of affected adult ticks (convulsion, morbidity or death of ticks) (Ixodes ricinus; adult ticks, 72 h): 100.0% | average percentage of affected adult ticks (convulsion, morbidity or death of ticks) (Ixodes ricinus; adult ticks, 96 h): 100.0% | detachment of adult ticks (in words) (Ixodes ricinus; 100 ppm, adult ticks): strong detachment | average percentage of attached adult ticks (Ixodes ricinus; 100 ppm, adult ticks, 1 h): 66.8% | average percentage of attached adult ticks (Ixodes ricinus; 100 ppm, adult ticks, 3 h): 56.2% | average percentage of attached adult ticks (Ixodes ricinus; 100 ppm, adult ticks, 6 h): 53.7% | average percentage of attached adult ticks (Ixodes ricinus; 100 ppm, adult ticks, 12 h): 53.7% | average percentage of attached adult ticks (Ixodes ricinus; 100 ppm, adult ticks, 24 h): 53.7% | average percentage of attached adult ticks (Ixodes ricinus; 100 ppm, adult ticks, 48 h): 53.7% | average percentage of attached adult ticks (Ixodes ricinus; 100 ppm, adult ticks, 72 h): 53.7% | average percentage of attached adult ticks (Ixodes ricinus; 100 ppm, adult ticks, 96 h): 53.7% | effect on nymphs (convulsion, morbidity or death), in words (Ixodes ricinus; 100 ppm, nymphs, compared with SN0305, SN0306, SN0307): comparable result | mortality at 100 ppm (Ixodes ricinus; adult ticks, 100 ppm, 1 h, read-out: average percentage of adult tick mortality (moribund or dead adult ticks)): 0% | mortality at 100 ppm (Ixodes ricinus; adult ticks, 100 ppm, 3 h, read-out: average percentage of adult tick mortality (moribund or dead adult ticks)): 2.8% | mortality at 100 ppm (Ixodes ricinus; adult ticks, 100 ppm, 6 h, read-out: average percentage of adult tick mortality (moribund or dead adult ticks)): 10.1% | mortality at 100 ppm (Ixodes ricinus; adult ticks, 100 ppm, 12 h, read-out: average percentage of adult tick mortality (moribund or dead adult ticks)): 17.4% | mortality at 100 ppm (Ixodes ricinus; adult ticks, 100 ppm, 24 h, read-out: average percentage of adult tick mortality (moribund or dead adult ticks)): 27.7% | mortality at 100 ppm (Ixodes ricinus; adult ticks, 100 ppm, 48 h, read-out: average percentage of adult tick mortality (moribund or dead adult ticks)): 58.9% | mortality at 100 ppm (Ixodes ricinus; adult ticks, 100 ppm, 72 h, read-out: average percentage of adult tick mortality (moribund or dead adult ticks)): 84.6% | mortality at 100 ppm (Ixodes ricinus; adult ticks, 100 ppm, 96 h, read-out: average percentage of adult tick mortality (moribund or dead adult ticks)): 97.5% | mortality at 100 ppm (Ixodes ricinus; nymphs, 100 ppm, 1 h, read-out: average percentage of mortality of tick nymphs (moribund or dead nymphs)): 0% | mortality at 100 ppm (Ixodes ricinus; nymphs, 100 ppm, 3 h, read-out: average percentage of mortality of tick nymphs (moribund or dead nymphs)): 14% | mortality at 100 ppm (Ixodes ricinus; nymphs, 100 ppm, 6 h, read-out: average percentage of mortality of tick nymphs (moribund or dead nymphs)): 38.7% | mortality at 100 ppm (Ixodes ricinus; nymphs, 100 ppm, 12 h, read-out: average percentage of mortality of tick nymphs (moribund or dead nymphs)): 74.9% | mortality at 100 ppm (Ixodes ricinus; nymphs, 100 ppm, 24 h, read-out: average percentage of mortality of tick nymphs (moribund or dead nymphs)): 100% | mortality at 100 ppm (Ixodes ricinus; nymphs, 100 ppm, 48 h, read-out: average percentage of mortality of tick nymphs (moribund or dead nymphs)): 100% | mortality at 100 ppm (Ixodes ricinus; nymphs, 100 ppm, 72 h, read-out: average percentage of mortality of tick nymphs (moribund or dead nymphs)): 100% | mortality at 100 ppm (Ixodes ricinus; nymphs, 100 ppm, 96 h, read-out: average percentage of mortality of tick nymphs (moribund or dead nymphs)): 100%
